The record followed here is ChEMBL document CHEMBL1201862, “PubChem BioAssay data set” (2004).

Among the test systems are SR; A549; A498; RXF 393; SK-MEL-2; UACC-257; SF-268; SK-MEL-28; DU-145; SNB-19; MDA-MB-435; HT-29; UACC-62; ACHN; HOP-62; HL-60; Malme-3M; SF-295; OVCAR-3; SW-620.
Test in all cases: inhibition of tumour cell growth, NCI panel, 48 h

Each structure is given as a SMILES string.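 Tested at 5 concentrations; 48 h exposure; 96-well plates; endpoints linearly interpolated, else capped at highest concentration. GI50 marks 50% less growth.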 Active and inactive are the calls of the source. Rule as the data show it: active = GI50 up to about 1.1 µM and inactive = higher.

Turning to `Nc1nc(=O)c2c([nH]1)NCC(CCNc1ccc(C(=O)O)cc1)N2` (configuration not stated), the GI50 with SR, in the assay with A549, with A498, in the assay with RXF 393, in the assay on SK-MEL-2 and in the assay with UACC-257 was > 100 µM (inactive) in each case. Also, the GI50 with SF-268, in the assay with SK-MEL-28, in the assay with DU-145, in the assay on SNB-19, with MDA-MB-435 and with HT-29 was > 100 µM (inactive) throughout. Further, the GI50 in the assay on UACC-62 was > 100 µM (inactive); in the assay on ACHN, > 100 µM (inactive); with HOP-62, > 100 µM (inactive); in the assay with HL-60, 78 µM (inactive); in the assay with Malme-3M it was > 100 µM (inactive); in the assay with SF-295 it was > 100 µM (inactive). Also, the GI50 with OVCAR-3 and in the assay on SW-620 was > 100 µM (inactive) in each case.
As for `CC(O)(/C=C/c1ccccc1)P(=O)(O)c1ccccc1` (configuration not stated), the GI50 in the assay with SR, with A549, in the assay on A498, in the assay with RXF 393, in the assay with SK-MEL-2 and in the assay with UACC-257 was > 100 µM (inactive) each time. The GI50 in the assay with SF-268, with SK-MEL-28, in the assay with DU-145, with SNB-19, in the assay on MDA-MB-435 and with HT-29 was > 100 µM (inactive) each time. In addition, the GI50 with UACC-62, in the assay on ACHN, in the assay with HOP-62, in the assay with HL-60, in the assay with Malme-3M and in the assay with SF-295 was > 100 µM (inactive) each time. The GI50 in the assay on OVCAR-3 and in the assay with SW-620 was > 100 µM (inactive) throughout.
`CC1(C)CCCCCCCCCC(C)(CCCO)C1=O` (configuration not stated): the GI50 was 35.2 µM (inactive) with SR; 15.5 µM (inactive) with A549; 18.5 µM (inactive) in the assay with A498; 19.7 µM (inactive) with RXF 393; 15 µM (inactive) in the assay on SK-MEL-2; 17.7 µM (inactive) with UACC-257. The GI50 in the assay with SF-268 is 18.2 µM (inactive); in the assay with SK-MEL-28, 18.2 µM (inactive); in the assay with DU-145 it was 17.2 µM (inactive); with SNB-19 it was 17.8 µM (inactive); in the assay on MDA-MB-435, 18.2 µM (inactive); with HT-29 it was 13.7 µM (inactive). The GI50 was 18.4 µM (inactive) in the assay on UACC-62; 17.9 µM (inactive) in the assay with ACHN; 16.6 µM (inactive) in the assay on HOP-62; 19.7 µM (inactive) with HL-60; 16.8 µM (inactive) with Malme-3M; 18.6 µM (inactive) in the assay with SF-295. For the same compound, the GI50 with OVCAR-3 is 19.6 µM (inactive); in the assay on SW-620, 19.7 µM (inactive).
Take `C=CCC1(O)C(=O)OC2C(O)COC21O` (configuration not stated): the GI50 with SR, with A549, with A498, in the assay with RXF 393, in the assay on SK-MEL-2 and in the assay with UACC-257 was > 100 µM (inactive) each time. Besides, the GI50 in the assay on SF-268 is > 100 µM (inactive); in the assay on SK-MEL-28, 23 µM (inactive); in the assay on DU-145, > 100 µM (inactive); with SNB-19 it was > 100 µM (inactive); in the assay with MDA-MB-435 it was > 100 µM (inactive); with HT-29, > 100 µM (inactive). In addition, the GI50 with UACC-62, in the assay with ACHN, with HOP-62, in the assay with HL-60, in the assay with Malme-3M and with SF-295 was > 100 µM (inactive) in each case. The GI50 with OVCAR-3 and in the assay on SW-620 was > 100 µM (inactive) in each case.
Take `C[N+]12CCCCC1C(CN1C(=O)Cc3c4ccccc4c(c4ccccc34)CC1=O)CCC2` (configuration not stated): the GI50 with SR, in the assay with A549, in the assay on A498, in the assay with RXF 393, in the assay with SK-MEL-2 and in the assay with UACC-257 was > 100 µM (inactive) in each case. For the same compound, the GI50 in the assay on SF-268, in the assay on SK-MEL-28, in the assay with DU-145, in the assay on SNB-19, with MDA-MB-435 and in the assay on HT-29 was > 100 µM (inactive) in each case. The GI50 in the assay with UACC-62, in the assay with ACHN, in the assay on HOP-62, with HL-60, in the assay with Malme-3M and in the assay on SF-295 was > 100 µM (inactive) throughout. Also, the GI50 with OVCAR-3 and in the assay on SW-620 was > 100 µM (inactive) throughout.
Consider `CCCCCCCCCCCCCCC[C@@H](O)C[N+](C)(C)CCO`, for which the GI50 is 1.72 µM (inactive) in the assay on SR; 3.49 µM (inactive) in the assay on A549; 19.1 µM (inactive) in the assay on A498; 1.11 µM (active) in the assay on RXF 393; 9.55 µM (inactive) in the assay on SK-MEL-2; 10.2 µM (inactive) in the assay with UACC-257. Further, the GI50 in the assay on SF-268 was 1.72 µM (inactive); in the assay on SK-MEL-28 it was 19.3 µM (inactive); with DU-145, 7.66 µM (inactive); in the assay on SNB-19, 1.63 µM (inactive); with MDA-MB-435, 4.84 µM (inactive); in the assay with HT-29 it was 1.2 µM (inactive). For the same compound, the GI50 was 3.92 µM (inactive) with UACC-62; 3.95 µM (inactive) in the assay on ACHN; 2.88 µM (inactive) in the assay on HOP-62; 0.149 µM (active) in the assay with HL-60; 2.81 µM (inactive) in the assay with Malme-3M; 2.37 µM (inactive) with SF-295. The GI50 in the assay on OVCAR-3 was 4.42 µM (inactive); in the assay with SW-620, 4.14 µM (inactive).
Regarding `O=C(c1ccc(/N=C/c2ccccc2O)cc1)c1ccc(/N=C/c2ccccc2O)cc1`, the GI50 in the assay with SR, in the assay on A549, in the assay on A498, in the assay with RXF 393, with SK-MEL-2 and in the assay with SF-268 was > 100 µM (inactive) each time. The GI50 in the assay on SK-MEL-28, in the assay on DU-145, with SNB-19, with MDA-MB-435, in the assay with HT-29 and with UACC-62 was > 100 µM (inactive) throughout. Moreover, the GI50 in the assay on ACHN, in the assay with HOP-62, in the assay on HL-60, in the assay on Malme-3M, in the assay with SF-295 and with OVCAR-3 was > 100 µM (inactive) each time. In the assay on SW-620, the GI50 is > 100 µM (inactive).
Consider `NCc1ccc(O)c(O)c1O`, for which the GI50 in the assay with SR was 30.1 µM (inactive); in the assay with A549 it was 27.6 µM (inactive); in the assay on A498, 75.3 µM (inactive); with RXF 393 it was 40.7 µM (inactive); with SK-MEL-2 it was 22.5 µM (inactive); with UACC-257, 30.8 µM (inactive). Further, the GI50 with SF-268 is 28.3 µM (inactive); in the assay on SK-MEL-28, 62.5 µM (inactive); in the assay on DU-145 it was 62.5 µM (inactive); in the assay with SNB-19, 54.5 µM (inactive); with MDA-MB-435, 18 µM (inactive); in the assay with HT-29, 16.9 µM (inactive). Besides, the GI50 is 27.1 µM (inactive) with UACC-62; 23.4 µM (inactive) in the assay with ACHN; 46.6 µM (inactive) in the assay with HOP-62; 30.3 µM (inactive) with HL-60; 71.1 µM (inactive) with Malme-3M; 25.7 µM (inactive) with SF-295. Further, the GI50 in the assay on OVCAR-3 is 22.1 µM (inactive); in the assay with SW-620, 20 µM (inactive).
As for `C(=N\N=C1NCCN1)/c1ccc2ccccc2c1`, the GI50 in the assay with SR was 12.9 µM (inactive); in the assay on A549, 14.4 µM (inactive); in the assay on A498, 14 µM (inactive); with RXF 393, 17.7 µM (inactive); in the assay with SK-MEL-2, 19.5 µM (inactive); in the assay with UACC-257 it was 13.2 µM (inactive). The GI50 in the assay on SF-268 was 17.9 µM (inactive); in the assay on SK-MEL-28, 14.3 µM (inactive); in the assay on DU-145 it was 31.2 µM (inactive); in the assay with MDA-MB-435, 15.6 µM (inactive); in the assay on HT-29, 14.5 µM (inactive); in the assay on UACC-62, 14.4 µM (inactive). Moreover, the GI50 was 16.5 µM (inactive) in the assay with ACHN; 16.1 µM (inactive) in the assay with HOP-62; 8.67 µM (inactive) in the assay on HL-60; 14.2 µM (inactive) in the assay on Malme-3M; 14.9 µM (inactive) in the assay on SF-295; 16.1 µM (inactive) in the assay with OVCAR-3. In the assay with SW-620, the GI50 was 16.3 µM (inactive).
As to `Cc1nn(C(=O)c2ccccc2O)c2c1C(c1ccc(O)cc1O)SC(=N)N2` (configuration not stated), the GI50 is 6.67 µM (inactive) in the assay with SR; 4.76 µM (inactive) in the assay with A549; 3.61 µM (inactive) in the assay with A498; 5.52 µM (inactive) with RXF 393; > 10 µM (inactive) in the assay on SK-MEL-2; 4.75 µM (inactive) in the assay on SF-268. Moreover, the GI50 with SK-MEL-28 was 8.91 µM (inactive); with DU-145, 8.28 µM (inactive); with SNB-19, 4.86 µM (inactive); with MDA-MB-435 it was 4.05 µM (inactive); in the assay with HT-29, > 10 µM (inactive); with UACC-62 it was 1.89 µM (inactive). Further, the GI50 is 4.75 µM (inactive) in the assay on ACHN; 3.02 µM (inactive) with HOP-62; 5.52 µM (inactive) with HL-60; > 10 µM (inactive) in the assay with Malme-3M; > 10 µM (inactive) in the assay on SF-295; 2.96 µM (inactive) in the assay on OVCAR-3. Further, the GI50 in the assay on SW-620 is 5.04 µM (inactive).
